Measurements reported in patent publication US8436000B2, “Substituted carbamate derivatives as modulators of corticotropin-releasing factor receptor activity” (Bristol-Myers Squibb Company, priority 2008, dated 2013).

How the values were obtained:
[1] = biological target: T1, CRF1 (Rattus norvegicus, UniProt P35353); assay: CRF1 Binding Assay (125I-ovine-CRF displacement, rat frontal cortex homogenate); settings: 125I-o-CRF
T1 construct: Frozen rat frontal cortex was thawed rapidly in assay buffer; tissue Analytical Biological Services, Inc. (Wilmington, Del.); host or cells: rat frontal cortex
T1 sequence (P35353 24-415): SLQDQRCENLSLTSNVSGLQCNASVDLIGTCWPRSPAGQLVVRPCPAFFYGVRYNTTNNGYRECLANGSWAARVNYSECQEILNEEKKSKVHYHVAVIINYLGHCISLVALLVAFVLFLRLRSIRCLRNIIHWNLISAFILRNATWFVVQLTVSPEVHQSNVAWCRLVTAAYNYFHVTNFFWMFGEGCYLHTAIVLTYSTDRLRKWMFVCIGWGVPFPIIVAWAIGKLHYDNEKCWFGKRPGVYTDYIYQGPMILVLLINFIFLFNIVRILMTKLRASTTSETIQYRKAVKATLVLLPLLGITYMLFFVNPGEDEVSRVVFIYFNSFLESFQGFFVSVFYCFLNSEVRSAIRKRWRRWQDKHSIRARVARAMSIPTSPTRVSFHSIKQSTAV
Experimental: Frozen rat frontal cortex was thawed rapidly in assay buffer containing 50 mM Hepes (pH 7.0 at 23° C.), 10 mM MgCl2, 2 mM EGTA, 1 μg/ml aprotinin, 1 μg/ml leupeptin, 1 Mg/ml pepstatin A, 0.005% Triton X-100, 10 U/ml bacitracin and 0.1% ovalbumin and homogenized. The suspension was centrifuged at 32000×g for 30 minutes. The resulting supernatant was discarded and the pellet resuspended by homogenization in assay buffer and centrifuged again. The supernatant was discarded and the pellet resuspended by homogenization in assay buffer and frozen at −70° C. On the day of the experiment aliquots of the homogenate were thawed quickly and 25 μg/well added to […] ^125I-ovine-CRF (^125I-o-CRF) and drugs in a total volume of 100 μl assay buffer. The assay mixture was incubated for 2 hr at 21° C. Bound and free radioligand were then separated by rapid filtration using glass fiber filters (Whatman GF/B, pretreated with 0.3% PEI (polyethylenimine)) on a Brandel Cell Harvester. Filters were then washed multiple times with ice cold wash buffer (PBS w/o Ca^2+ and Mg^2+, 0.01% Triton X-100; pH 7.0 at 23° C.). Non-specific binding was defined using 1 μM DMP696, a CRF1 selective antagonist [Li, Y-W. et al., CNS Drug Reviews 11: 21-52, (2005)]. Filters were then counted in a Wallac Wizard gamma counter. IC50 values were determined in a five point (five drug concentrations) or ten point (ten drug concentrations) competition assay using non-linear regression by Microsoft Excel-fit. Rat frontal cortex was obtained from Analytical Biological Services, Inc. (Wilmington, Del.). ^125I-ovine-CRF (2200 Ci/mmol) was obtained from PerkinElmer Life Sciences, Inc. (Boston, Mass.).

[2] = tested on: Human Y-79 retinoblastoma cells; assay: Functional Assay (Y-79 cells), CRF-stimulated cAMP production (HTRF); format: cell-based; settings: stimulation of cAMP production in Y-79 cells, n=6
Experimental: Functional Assay (Y-79 cells).
Human Y-79 retinoblastoma cells were suspended in assay buffer (Hank's Balanced Salt Solution containing 2 mM CaCl2, 5 mM MgCl2, 20 mM HEPES, 1 mM IBMX) and plated at 20,000 cells/well in a 96-well black plate. CRF antagonists (typically 0.01 to 10,000 nM) were then added to wells as needed and allowed to equilibrate with the cells for 30 minutes at 37° C. […] The reaction was terminated by the addition of a lysis solution containing homogeneous time resolved florescence (HTRF) cAMP XL665 conjugate followed by HTRF anti-cAMP cryptate conjugate (CIS bio International). Plates were subsequently incubated at room temperature for 1 hour prior to reading the time-resolved fluorescence signal. The amount of cAMP produced was estimated from a standard curve prepared using known concentrations of cAMP. The percentage inhibition of CRF-induced cAMP production was determined for each compound (triplicate determinations). The effect of CRF antagonists on basal cAMP production (i.e. in the absence of CRF) was also determined.

Molecule	IC50 ([1]; class symbols) [nM]	further results
Cc1cc(Nc2nc(Cl)cn([C@H](COC(=O)Nc3cccnc3)C3CC3)c2=O)c(C)nc1OC(F)F [Example 15, (S)-2-(5-Chloro-3-(6-(difluoromethoxy)-2,5-dimethylpyridin-3-ylamino)-2-oxopyrazin-1(2H)-yl)-2-cyclopropylethyl pyridin-3-ylcarbamate]	0.1 to 100	
Corticotropin releasing factor [CRF]		EC50 [2]: 1.11 ± 0.14 nM
COc1nc(C)c(Nc2nc(Cl)cn([C@H](COC(=O)Nc3cc(Cl)cc(Cl)c3)C3CC3)c2=O)cc1C [Example 6, (S)-2-(5-Chloro-3-(6-methoxy-2,5-dimethylpyridin-3-ylamino)-2-oxopyrazin-1(2H)-yl)-2-cyclopropylethyl 3,5-dichlorophenylcarbamate]	0.1 to 100	
COc1nc(C)c(Nc2nc(Cl)cn([C@H](COC(=O)Nc3ccccc3)C3CC3)c2=O)cc1C [Example 1, (S)-2-(5-Chloro-3-(6-methoxy-2,5-dimethylpyridin-3-ylamino)-2-oxopyrazin-1(2H)-yl)-2-cyclopropylethyl phenylcarbamate]	0.1 to 100	
COc1nc(C)c(Nc2nc(Cl)cn([C@H](COC(=O)Nc3cccnc3)C3CC3)c2=O)cc1C [Example 3, (S)-2-(5-Chloro-3-(6-methoxy-2,5-dimethylpyridin-3-ylamino)-2-oxopyrazin-1(2H)-yl)-2-cyclopropylethyl pyridin-3-ylcarbamate]	0.1 to 100	
Cc1cc(Nc2nc(Cl)cn([C@H](COC(=O)Nc3ccccc3)C3CC3)c2=O)c(C)nc1OC(F)F [Example 14, (S)-2-(5-Chloro-3-(6-(difluoromethoxy)-2,5-dimethylpyridin-3-ylamino)-2-oxopyrazin-1(2H)-yl)-2-cyclopropylethyl phenylcarbamate]		IC50 ([1]; numeric values): 0.74 nM
COc1nc(C)c(Nc2nc(Cl)cn([C@H](COC(=O)Nc3ccccc3Cl)C3CC3)c2=O)cc1C [Example 4, (S)-2-(5-Chloro-3-(6-methoxy-2,5-dimethylpyridin-3-ylamino)-2-oxopyrazin-1(2H)-yl)-2-cyclopropylethyl 2-chlorophenylcarbamate]	0.1 to 100	
COc1nc(C)c(NC(=O)OC[C@H](C2CC2)n2cc(Cl)nc(Nc3cc(C)c(OC)nc3C)c2=O)cc1C [Example 12, (S)-2-(5-Chloro-3-(6-methoxy-2,5-dimethylpyridin-3-ylamino)-2-oxopyrazin-1(2H)-yl)-2-cyclopropyl ethyl 6-methoxy-2,5-dimethylpyridin-3-ylcarbamate]	0.1 to 100	
COc1nc(C)c(Nc2nc(Cl)cn([C@H](COC(=O)Nc3cccc(C#N)c3)C3CC3)c2=O)cc1C [Example 2, (S)-2-(5-Chloro-3-(6-methoxy-2,5-dimethylpyridin-3-ylamino)-2-oxopyrazin-1(2H)-yl)-2-cyclopropylethyl 3-cyanophenylcarbamate]	0.1 to 100	melting point: 206.5 to 207.2 °C
COc1ccc(NC(=O)OC[C@H](C2CC2)n2cc(Cl)nc(Nc3cc(C)c(OC)nc3C)c2=O)c(C)n1 [Example 13, (S)-2-(5-Chloro-3-(6-methoxy-2,5-dimethylpyridin-3-ylamino)-2-oxopyrazin-1(2H)-yl)-2-cyclopropylethyl 6-methoxy-2-dimethylpyridin-3-ylcarbamate]	0.1 to 100	
COc1nc(C)c(Nc2nc(Cl)cn([C@H](COC(=O)Nc3ccc(Cl)cc3Cl)C3CC3)c2=O)cc1C [Example 7, (S)-2-(5-Chloro-3-(6-methoxy-2,5-dimethylpyridin-3-ylamino)-2-oxopyrazin-1(2H)-yl)-2-cyclopropylethyl 2,4-dichlorophenylcarbamate]	0.1 to 100	
CCCNC(=O)OC[C@H](C1CC1)n1cc(Cl)nc(Nc2cc(C)c(OC)nc2C)c1=O [Example 9, (S)-2-(5-Chloro-3-(6-methoxy-2,5-dimethylpyridin-3-ylamino)-2-oxopyrazin-1(2H)-yl)-2-cyclopropylethyl propylcarbamate]	0.1 to 100	
CCCCNC(=O)OC[C@H](C1CC1)n1cc(Cl)nc(Nc2cc(C)c(OC)nc2C)c1=O [Example 8, (S)-2-(5-Chloro-3-(6-methoxy-2,5-dimethylpyridin-3-ylamino)-2-oxopyrazin-1(2H)-yl)-2-cyclopropylethyl butylcarbamate]		IC50 ([1]; numeric values): 4.74 nM
CCOc1nc(C)c(NC(=O)OC[C@H](C2CC2)n2cc(Cl)nc(Nc3cc(C)c(OC)nc3C)c2=O)cc1C [Example 11, (S)-2-(5-Chloro-3-(6-methoxy-2,5-dimethylpyridin-3-ylamino)-2-oxopyrazin-1(2H)-yl)-2-cyclopropylethyl 6-ethoxy-2,5-dimethylpyridin-3-ylcarbamate]		IC50 ([1]; numeric values): 15.9 nM
COc1nc(C)c(Nc2nc(Cl)cn([C@H](COC(=O)Nc3ccc(Cl)cc3)C3CC3)c2=O)cc1C [Example 5, (S)-2-(5-Chloro-3-(6-methoxy-2,5-dimethylpyridin-3-ylamino)-2-oxopyrazin-1(2H)-yl)-2-cyclopropylethyl 4-chlorophenylcarbamate]	0.1 to 100	
CCNC(=O)OC[C@H](C1CC1)n1cc(Cl)nc(Nc2cc(C)c(OC)nc2C)c1=O [Example 10, (S)-2-(5-Chloro-3-(6-methoxy-2,5-dimethylpyridin-3-ylamino)-2-oxopyrazin-1(2H)-yl)-2-cyclopropylethyl ethylcarbamate]	0.1 to 100	
